Reference: US20210198256A1, “COMPOUNDS FOR THE DEGRADATION OF BRD9 OR MTH1” (C4 Therapeutics, Inc., priority 2018, published 2021)

The molecules below were run on SMARTCAR-MTH1-wt-HiBiT (Jurkat.7 cells) (assay: HiBit Lytic Assay (HiBit DC50, MTH1 degraders of Table 2)). Conditions: Jurkat.7 SMARTCAR-MTH1-wt-HiBiT cells, compound treatment time 4 hr, 11-point half log dose response.
Type: cell-based, human
Procedure, shortened: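 Jurkat.7 cells expressing SMARTCAR-MTH1-wt-HiBiT were treated at 37° C with 11-point half-log dilutions (top final 1000 nM or 833 nM, duplicates, 0.1% DMSO). Remaining HiBiT-tagged protein was read by Nano-Glo HiBiT lytic luminescence, normalized to media-only and DMSO controls.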

| Compound | DC50 |
| --- | --- |
| CNC(=O)c1cnc2ccc(-c3ccc(C(=O)NCCCCN4CCN(c5cccc6c5C(=O)N(C5CCC(=O)NC5=O)C6=O)CC4)cc3)cc2c1Nc1ccccc1 (centres unmarked) [Compound 359, 4-anilino-6-[4-[4-[4-[2-(2,6-dioxo-3-piperidyl)-1,3-dioxo-isoindolin-4-yl]piperazin-1-yl]butylcarbamoyl]phenyl]-N-methyl-quinoline-3-carboxamide] | < 100 nM |
| CNC(=O)c1cnc2ccc(-c3ccc(C(=O)NCCCCNC(=O)COc4cccc5c4C(=O)N(C4CCC(=O)NC4=O)C5=O)c(C)c3)cc2c1Nc1ccccc1 (centres unmarked) [Compound 354, 4-anilino-6-[4-[4-[[2-[2-(2,6-dioxo-3-piperidyl)-1,3-dioxo-isoindolin-4-yl]oxyacetyl]amino]butylcarbamoyl]-3-methyl-phenyl]-N-methyl-quinoline-3-carboxamide] | < 100 nM |
| NC(=O)c1cnc2ccc(-c3ccc(C(=O)NCCCCNC(=O)CNc4cccc5c4C(=O)N(C4CCC(=O)NC4=O)C5=O)cc3)cc2c1Nc1ccccc1 (centres unmarked) [Compound 302, 6-(4-((4-(2-((2-(2,6-dioxopiperidin-3-yl)-1,3-dioxoisoindolin-4 yl)amino)acetamido)butyl)carbamoyl)phenyl)-4-(phenylamino)quinoline-3-carboxamide] | < 100 nM |
| CNC(=O)c1cnc2ccc(-c3ccc(C(=O)NCCCCNC(=O)CCc4cccc5c4CN(C4CCC(=O)NC4=O)C5=O)cc3)cc2c1Nc1ccccc1 (centres unmarked) [Compound 374, 4-anilino-6-[4-[4-[3-[2-(2,6-dioxo-3-piperidyl)-1-oxo-isoindolin-4-yl]propanoylamino]butylcarbamoyl]phenyl]-N-methyl-quinoline-3-carboxamide] | < 100 nM |
| CNC(=O)c1cnc2ccc(-c3ccc(C(=O)NCCCCNC(=O)C(C)Nc4cccc5c4C(=O)N(C4CCC(=O)NC4=O)C5=O)cc3)cc2c1Nc1ccccc1 (centres unmarked) [Compound 346, 4-anilino-6-[4-[4-[2-[[2-(2,6-dioxo-3-piperidyl)-1,3-dioxo-isoindolin-4-yl]amino]propanoylamino]butylcarbamoyl]phenyl]-N-methyl-quinoline-3-carboxamide] | < 100 nM |
| NC(=O)c1cnc2ccc(-c3ccc(C(=O)NCCCCNC(=O)COc4cccc5c4C(=O)N(C4CCC(=O)NC4=O)C5=O)cc3)cc2c1Nc1ccccc1 (centres unmarked) [Compound 300, 4-anilino-6-[4-[4-[[2-[2-(2,6-dioxo-3-piperidyl)-1,3-dioxo-isoindolin-4-yl]oxyacetyl]amino]butylcarbamoyl]phenyl]quinoline-3-carboxamide] | < 100 nM |
| CNC(=O)c1cnc2cc(OC)c(-c3ccc(C(=O)NCCCCNC(=O)C(C)Nc4cccc5c4C(=O)N(C4CCC(=O)NC4=O)C5=O)nc3)cc2c1Nc1ccccc1 (stereo in doubt) [Compound 384, 6-(6-((4-((2S)-2-((2-(2,6-dioxopiperidin-3-yl)-1,3-dioxoisoindolin-4-yl)amino)propanamido)butyl)carbamoyl)pyridin-3-yl)-7-methoxy-N-methyl-4-(phenylamino)quinoline-3-carboxamide] | < 100 nM |
| CN(CC(=O)NCCOCCNC(=O)c1ccc(-c2ccc3ncc(C(N)=O)c(Nc4ccccc4)c3c2)cc1)c1cccc2c1C(=O)N(C1CCC(=O)NC1=O)C2=O (centres unmarked) [Compound 311, 4-anilino-6-[4-[2-[2-[[2-[[2-(2,6-dioxo-3-piperidyl)-1,3-dioxo-isoindolin-4-yl]-methyl-amino]acetyl]amino]ethoxy]ethylcarbamoyl]phenyl]quinoline-3-carboxamide] | < 1000 nM |
| CNC(=O)c1cnc2ccc(-c3ccc(C(=O)NCCCCCCCCc4cccc5c4CN(C4CCC(=O)NC4=O)C5=O)cc3)cc2c1Nc1ccccc1 (centres unmarked) [Compound 378, 4-anilino-6-[4-[8-[2-(2,6-dioxo-3-piperidyl)-1-oxo-isoindolin-4-yl]octylcarbamoyl]phenyl]-N-methyl-quinoline-3-carboxamide] | < 100 nM |
| CNC(=O)c1cnc2ccc(-c3cnn(CCCCCCNC(=O)COc4cccc5c4C(=O)N(C4CCC(=O)NC4=O)C5=O)c3)cc2c1Nc1ccccc1 (centres unmarked) [Compound 360, 4-anilino-6-[1-[6-[[2-[2-(2,6-dioxo-3-piperidyl)-1,3-dioxo-isoindolin-4-yl]oxyacetyl]amino]hexyl]pyrazol-4-yl]-N-methyl-quinoline-3-carboxamide] | < 100 nM |

Second part, the molecule after the results:

| DC50 | Compound |
| --- | --- |
| < 100 nM | CNc1c(C(=O)NC2CC2)cnc2cc(F)c(-c3ccc(C(=O)NCCCCNC(=O)CCc4cccc5c4CN(C4CCC(=O)NC4=O)C5=O)c(F)c3)cc12 (centres unmarked) [Compound 419, N-cyclopropyl-6-[4-[4-[3-[2-(2,6-dioxo-3-piperidyl)-1-oxo-isoindolin-4-yl]propanoylamino]butylcarbamoyl]-3-fluoro-phenyl]-7-fluoro-4-(methylamino)quinoline-3-carboxamide] |
| < 100 nM | NC(=O)c1cnc2ccc(NCCCCCCCCCCNC(=O)COc3cccc4c3C(=O)N(C3CCC(=O)NC3=O)C4=O)cc2c1Nc1ccccc1 (centres unmarked) [Compound 465, 6-((10-(2-((2-(2,6-dioxopiperidin-3-yl)-1,3-dioxoisoindolin-4-yl)oxy)acetamido)decyl)amino)-4-(phenylamino)quinoline-3-carboxamide] |
| < 100 nM | O=C1CCC(N2C(=O)c3cccc(NCC(O)C(=O)NCCCNC(=O)c4ccc(-c5cc6c(Nc7ccccc7)c(C(=O)NC7CC7)cnc6cc5F)cc4F)c3C2=O)C(=O)N1 (centres unmarked) [Compound 440, N-cyclopropyl-6-(4-((3-(3-((2-(2,6-dioxopiperidin-3-yl)-1,3-dioxoisoindolin-4-yl)amino)-2-hydroxypropanamido)propyl)carbamoyl)-3-fluorophenyl)-7-fluoro-4-(phenylamino)quinoline-3-carboxamide] |
| < 100 nM | CNC(=O)c1cnc2ccc(NCCCCCCCCCCNC(=O)COc3cccc4c3C(=O)N(C3CCC(=O)NC3=O)C4=O)cc2c1NCc1ccccc1 (centres unmarked) [Compound 448, 4-(benzylamino)-6-((10-(2-((2-(2,6-dioxopiperidin-3-yl)-1,3-dioxoisoindolin-4-yl)oxy)acetamido)decyl)amino)-N-methylquinoline-3-carboxamide] |
| < 100 nM | CNC(=O)c1cnc2cc(OC)c(NCCCCCCCCCCNC(=O)COc3cccc4c3C(=O)N(C3CCC(=O)NC3=O)C4=O)cc2c1Nc1ccccc1 (centres unmarked) [Compound 454, 6-((10-(2-((2-(2,6-dioxopiperidin-3-yl)-1,3-dioxoisoindolin-4-yl)oxy)acetamido)decyl)amino)-7-methoxy-N-methyl-4-(phenylamino)quinoline-3-carboxamide] |
| < 100 nM | CNc1c(C(=O)NC2CC2)cnc2cc(OC)c(-c3ccc(C(=O)NCCCCn4cc(CNc5cccc6c5C(=O)N(C5CCC(=O)NC5=O)C6=O)nn4)nc3)cc12 (centres unmarked) [Compound 397, N-cyclopropyl-6-[6-[4-[4-[[[2-(2,6-dioxo-3-piperidyl)-1,3-dioxo-isoindolin-4-yl]amino]methyl]triazol-1-yl]butylcarbamoyl]-3-pyridyl]-7-methoxy-4-(methylamino)quinoline-3-carboxamide] |
| < 100 nM | CC(Nc1cccc2c1C(=O)N(C1CCC(=O)NC1=O)C2=O)c1cn(CCCCNC(=O)c2ccc(-c3cc4c(Nc5ccccc5)c(C(=O)NC5CC5)cnc4cc3C(F)(F)F)cc2F)nn1 (centres unmarked) [Compound 434, N-cyclopropyl-6-(4-((4-(4-(1-((2-(2,6-dioxopiperidin-3-yl)-1,3-dioxoisoindolin-4-yl)amino)ethyl)-1H-1,2,3-triazol-1-yl)butyl)carbamoyl)-3-fluorophenyl)-4-(phenylamino)-7-(trifluoromethyl)quinoline-3-carboxamide] |
